Like-named read-outs stand apart in the source and are kept apart here.
Tests used:
[1] = Determination of lipophilicity by RP-HPLC (capacity factor k); assay type: physicochemical; details: C18, isocratic MeOH 72%/H2O 28%, 40 °C
Procedure: The lipophilicity of all the target compounds was investigated by means of RP-HPLC determination of capacity factors k with a subsequent calculation of log k. The retention times of individual compounds were determined under isocratic conditions with methanol as an organic modifier in the mobile phase using end-capped non-polar C18 stationary RP columns.
The HPLC separation system Agilent 1200 series equipped with a DAD SL (Agilent Technologies) was used. A chromatographic column Symmetry® C18 5 μm, 4.6 × 250 mm, Part No. W21751W016 (Waters Corp., Milford, MA, USA) was applied. The HPLC separation process was monitored by the ChemStation for LC 3D chromatography software (Agilent Technologies). Isocratic elution by a mixture of MeOH p.a. (72%) and H2O-HPLC Mili-Q grade (28%) as a mobile phase was used for the determination of the capacity factor k. The total flow of the column was 1.0 mL/min, injection 20 μL, column temperature 40 °C, and sample temperature 10 °C. The detection wavelength of 210 nm was chosen. A KI methanolic solution was used for the determination of the dead times (tD). Retention times (tR) were measured in minutes. The capacity factors k were calculated according to the formula k = (tR − tD)/tD, where tR is the retention time of the solute and tD is the dead time obtained using an unretained analyte. Each experiment was repeated three times.

[2] = target: T1, AChE from electric eel (Electrophorus electricus) (Electrophorus electricus, UniProt O42275); assay: In vitro AChE inhibition, modified Ellman's method; assay type: biochemical
T1 construct: purchased Sigma, St. Louis, MO, USA
Procedure: (§1) The ability of all the prepared compounds to inhibit AChE from electric eel (Electrophorus electricus) and BChE from equine serum (both purchased from Sigma, St. Louis, MO, USA) was determined in vitro using a modified Ellman’s method, as described in detail elsewhere. This is a simple, rapid, and direct method to determine the SH and -S-S- group content in proteins. The enzyme activity is measured indirectly by quantifying the concentration of the 5-thio-2-nitrobenzoic acid ion formed in the reaction between the thiol reagent 5,5’-dithiobis-2nitrobenzoic acid (DTNB) and thiocholine, which is a product of acetylthiocholine hydrolysis catalyzed by cholinesterases. The effectiveness of the tested inhibitors is expressed as the IC50 values.
(§2) The enzyme activity in the final reaction mixture (2 mL) was 0.2 U/mL, the concentration of the substrate (acetylthiocholine or butyrythiocholine) was 40 µM, and the concentration of DTNB was 0.1 mM for all reactions. All reactions were carried out at 25 °C in the presence of phosphate-buffered saline (0.1 M, pH 7.4) in a glass cuvette with a 1 cm optical path. All the studied inhibitors were dissolved in DMSO (concentration 0.01 M) and then diluted in demineralized water as necessary. […] All measurements were carried out in triplicate, and the average values of the reaction rate (v0—reaction in the absence of the inhibitor, vi—reaction in the presence of the inhibitor) were used for construction of the dependence v0/vi vs. concentration of the inhibitor.

BChE from equine serum = target: T2, BChE from equine serum (Equus caballus, UniProt P81908); assay: In vitro BChE inhibition, modified Ellman's method; assay type: biochemical; details: for SI (index selectivity) = IC50 (AChE)/IC50 (BChE): ratio IC50 AChE/IC50 BChE
T2 construct: BChE from equine serum; purchased Sigma, St. Louis, MO, USA; host or cells: equine serum
Procedure: as §1, §2

[3] = mean ± SD, n = 3, electric eel AChE, 25 °C, pH 7.4, read-out: IC50 AChE

T2 sequence (P81908 whole entry): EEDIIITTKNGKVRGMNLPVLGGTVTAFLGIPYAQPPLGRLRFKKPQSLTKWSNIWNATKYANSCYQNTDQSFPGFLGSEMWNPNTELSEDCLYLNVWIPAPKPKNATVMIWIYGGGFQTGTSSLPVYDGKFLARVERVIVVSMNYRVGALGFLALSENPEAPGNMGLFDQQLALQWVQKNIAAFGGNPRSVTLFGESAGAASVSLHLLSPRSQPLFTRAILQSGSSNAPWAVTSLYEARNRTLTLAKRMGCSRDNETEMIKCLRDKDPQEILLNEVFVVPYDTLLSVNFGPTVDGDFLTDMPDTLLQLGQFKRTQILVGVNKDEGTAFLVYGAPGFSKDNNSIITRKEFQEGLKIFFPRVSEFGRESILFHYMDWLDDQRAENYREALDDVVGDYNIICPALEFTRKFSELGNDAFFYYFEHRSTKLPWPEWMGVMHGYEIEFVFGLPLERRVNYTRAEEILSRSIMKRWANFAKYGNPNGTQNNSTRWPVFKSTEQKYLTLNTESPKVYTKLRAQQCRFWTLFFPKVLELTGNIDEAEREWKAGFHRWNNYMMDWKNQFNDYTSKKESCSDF
T1 sequence (O42275 24-633): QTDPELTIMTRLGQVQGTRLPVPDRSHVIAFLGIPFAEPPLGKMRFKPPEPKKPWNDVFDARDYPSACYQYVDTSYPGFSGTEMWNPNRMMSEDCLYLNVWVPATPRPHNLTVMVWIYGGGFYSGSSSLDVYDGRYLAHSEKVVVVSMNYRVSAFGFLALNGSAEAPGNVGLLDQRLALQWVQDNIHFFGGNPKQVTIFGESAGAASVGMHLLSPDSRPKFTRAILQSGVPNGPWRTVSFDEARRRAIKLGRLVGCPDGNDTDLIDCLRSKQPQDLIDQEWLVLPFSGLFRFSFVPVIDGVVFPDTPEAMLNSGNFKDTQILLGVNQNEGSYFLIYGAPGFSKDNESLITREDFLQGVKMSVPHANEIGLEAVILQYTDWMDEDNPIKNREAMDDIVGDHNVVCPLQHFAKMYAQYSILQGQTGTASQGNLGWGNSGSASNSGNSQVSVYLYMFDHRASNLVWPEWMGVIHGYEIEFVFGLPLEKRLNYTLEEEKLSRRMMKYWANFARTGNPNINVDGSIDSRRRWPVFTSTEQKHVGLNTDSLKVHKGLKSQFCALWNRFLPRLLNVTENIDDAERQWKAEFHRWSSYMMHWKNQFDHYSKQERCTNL

SMILES	log k [1]	IC50 [2] [µM]	IC50 (BChE from equine serum) [µM]	SI (index selectivity) = IC50 (AChE)/IC50 (BChE) (BChE from equine serum)	IC50 [2, 3] [µM]	IC50 (BChE from equine serum; mean ± SD, n = 3, equine serum BChE, 25 °C, pH 7.4, read-out: IC50 BChE) [µM]
O=C(Nc1ccc(C(=O)Nc2cccc(C(F)(F)F)c2)c(O)c1)OCc1ccccc1 [Compound 13, Benzyl(3-hydroxy-4-{[3-(trifluoromethyl)phenyl]carbamoyl}phenyl)carbamate]	0.4477	70.67 ± 0.57	309 ± 8.06	0.23		
O=C(Nc1ccc(C(=O)Nc2cc(F)c(F)c(F)c2)c(O)c1)OCc1ccccc1 [Compound 29, Benzyl{3-hydroxy-4-[(3,4,5-trifluorophenyl)carbamoyl]phenyl}carbamate]	0.5169	62.3 ± 0.75	183.7 ± 0.75	0.34		
O=C(Nc1ccc(C(=O)Nc2ccc(Br)cc2Br)c(O)c1)OCc1ccccc1 [Compound 26, Benzyl{4-[(2,4-dibromophenyl)carbamoyl]-3-hydroxyphenyl}carbamate]	0.7366	94.9 ± 0.97	262 ± 5.1	0.36		
O=C(Nc1ccc(C(=O)Nc2cccc(F)c2F)c(O)c1)OCc1ccccc1 [Compound 16, Benzyl{4-[(2,3-difluorophenyl)carbamoyl]-3-hydroxyphenyl}carbamate]	0.4705	62.4 ± 1.42	200 ± 7	0.31		
O=C(Nc1ccc(C(=O)Nc2ccccc2C(F)(F)F)c(O)c1)OCc1ccccc1 [Compound 12, Benzyl(3-hydroxy-4-{[2-(trifluoromethyl)phenyl]carbamoyl}phenyl)carbamate]	0.4318	56.4 ± 1.26	33.6 ± 0.71	1.68		
O=C(Nc1ccc(C(=O)Nc2ccc(Cl)cc2)c(O)c1)OCc1ccccc1 [Compound 11, Benzyl{4-[(4-chlorophenyl)carbamoyl]-3-hydroxyphenyl}carbamate]	0.6399	78.2 ± 1.58	139 ± 6.86	0.56		
O=C(Nc1ccc(C(=O)Nc2c(F)cccc2F)c(O)c1)OCc1ccccc1 [Compound 19, Benzyl{4-[(2,6-difluorophenyl)carbamoyl]-3-hydroxyphenyl}carbamate]	-0.1205	64.3 ± 4.74	42.9 ± 2.13	1.50		
O=C(Nc1ccc(C(=O)Nc2cc(C(F)(F)F)cc(C(F)(F)F)c2)c(O)c1)OCc1ccccc1 [Compound 27, Benzyl{4-[(3,5-di(trifluoromethyl))carbamoyl]-3-hydroxyphenyl}carbamate]	0.9667			0.41	59.4 ± 3.38	146 ± 2.65
COc1cccc(NC(=O)c2ccc(NC(=O)OCc3ccccc3)cc2O)c1 [Compound 3, Benzyl{3-hydroxy-4-[(3-methoxyphenyl)carbamoyl]phenyl}carbamate]	0.1280	69.3 ± 2	362 ± 8.12	0.19		
O=C(Nc1ccc(C(=O)Nc2ccc(F)cc2F)c(O)c1)OCc1ccccc1 [Compound 17, Benzyl{4-[(2,4-difluorophenyl)carbamoyl]-3-hydroxyphenyl}carbamate]	0.1912	79.2 ± 1.27	180 ± 7.04	0.44		
O=C(Nc1ccc(C(=O)Nc2ccccc2)c(O)c1)OCc1ccccc1 [Compound 1, Benzyl[3-hydroxy-4-(phenylcarbamoyl)phenyl]carbamate]	0.1160	65.2 ± 2.24	175 ± 5.85	0.37		
O=C(Nc1ccc(C(=O)Nc2ccc(F)cc2)c(O)c1)OCc1ccccc1 [Compound 8, Benzyl{4-[(4-fluorophenyl)carbamoyl]-3-hydroxyphenyl}carbamate]	0.3924	47.4 ± 0.61	105.8 ± 0.43	0.45		
O=C(Nc1ccc(C(=O)Nc2cccc(F)c2)c(O)c1)OCc1ccccc1 [Compound 7, Benzyl{4-[(3-fluorophenyl)carbamoyl]-3-hydroxyphenyl}carbamate]	0.2303	66.6 ± 0.14	197.6 ± 1.36	0.34		
O=C(Nc1ccc(C(=O)Nc2ccccc2F)c(O)c1)OCc1ccccc1 [Compound 6, Benzyl{4-[(2-fluorophenyl)carbamoyl]-3-hydroxyphenyl}carbamate]	0.3577	50.07 ± 0.06	70.8 ± 5.61	0.71		
O=C(Nc1ccc(C(=O)Nc2cc(F)cc(F)c2)c(O)c1)OCc1ccccc1 [Compound 20, Benzyl{4-[(3,5-difluorophenyl)carbamoyl]-3-hydroxyphenyl}carbamate]	0.4072	67.4 ± 5.24	208 ± 5.3	0.32		
O=C(Nc1ccc(C(=O)Nc2ccccc2Cl)c(O)c1)OCc1ccccc1 [Compound 9, Benzyl{4-[(2-chlorophenyl)carbamoyl]-3-hydroxyphenyl}carbamate]	0.5188	41.86 ± 0.15	140.1 ± 0.35	0.30		
O=C(Nc1ccc(C(=O)Nc2c(Cl)cccc2Cl)c(O)c1)OCc1ccccc1 [Compound 23, Benzyl{4-[(2,6-dichlorophenyl)carbamoyl]-3-hydroxyphenyl}carbamate]	0.8125	76.74 ± 0.74	117.6 ± 1.11	0.65		
O=C(Nc1ccc(C(=O)Nc2ccc(Cl)c(Cl)c2)c(O)c1)OCc1ccccc1 [Compound 24, Benzyl{4-[(3,4-dichlorophenyl)carbamoyl]-3-hydroxyphenyl}carbamate]	0.6664	58 ± 5.83	185 ± 6.13	0.31		
O=C(Nc1ccc(C(=O)Nc2c(Cl)cc(Cl)cc2Cl)c(O)c1)OCc1ccccc1 [Compound 31, Benzyl{3-hydroxy-4-[(2,4,6-trichlorophenyl)carbamoyl]phenyl}carbamate]	0.3679	93.1 ± 1.8	57.1 ± 1.72	1.63		
O=C(Nc1ccc(C(=O)Nc2cc(Cl)ccc2Cl)c(O)c1)OCc1ccccc1 [Compound 22, Benzyl{4-[(2,5-dichlorophenyl)carbamoyl]-3-hydroxyphenyl}carbamate]	0.6138	99.14 ± 0.2	141 ± 7.12	0.70		
COc1ccc(NC(=O)c2ccc(NC(=O)OCc3ccccc3)cc2O)cc1 [Compound 4, Benzyl{3-hydroxy-4-[(4-methoxyphenyl)carbamoyl]phenyl}carbamate]	0.1176	57.49 ± 0.08	154 ± 6.09	0.37		
O=C(Nc1ccc(C(=O)Nc2cccc(Cl)c2Cl)c(O)c1)OCc1ccccc1 [Compound 21, Benzyl{4-[(2,3-dichlorophenyl)carbamoyl]-3-hydroxyphenyl}carbamate]	0.5497	88.8 ± 1.42	248 ± 14.9	0.36		
O=C(Nc1ccc(C(=O)Nc2c(Br)cc(Br)cc2Br)c(O)c1)OCc1ccccc1 [Compound 32, Benzyl{3-hydroxy-4-[(2,4,6-tribromophenyl)carbamoyl]phenyl}carbamate]	0.4427	65.9 ± 2.81	56 ± 0.58	1.18		
O=C(Nc1ccc(C(=O)O)c(O)c1)OCc1ccccc1 [CbzPAS, 4-{[(Benzyloxy)carbonyl]amino}-2-hydroxybenzoic acid, reference compound]		58.1 ± 1.04	137 ± 21.8	0.42		
O=C(Nc1ccc(C(=O)Nc2ccccc2OC(F)(F)F)c(O)c1)OCc1ccccc1					36.1	

From publication PMC8037530, “Synthesis and Hybrid SAR Property Modeling of Novel Cholinesterase Inhibitors” (International Journal of Molecular Sciences, 2021)
